Patent US20250387369A1 (priority 2022, published 2025)
Read-outs that look alike come from different tables or passages of the source.

Assays:
Assay type in all cases: cell-based
[1] = tested on: SARS-COV-2 (a prototype having D614G mutation)
[2] = tested on: SARS-COV-2 (a prototype having D614G mutation); remark: listed apart in the source
[3] = tested on: SARS-COV-2 Omicron mutant BA.1 strain
[4] = tested on: SARS-COV-2 Omicron mutant BA.2 strain

SMILES	IC50 [1]	IC50 [2]	IC50 [3]	IC50 [4]
CC(C)(C)OC(=O)NCCCCCCC(C)(C(=O)O)c1c[nH]c2ccccc12 (centres unmarked) [Compound #13]	1.1 µM			
COc1cc(COc2ccc3[nH]cc(CC(=O)O)c3c2)cc(OC)c1 [Compound #35]	15.4 µM			
CC(C)C(=O)OC[C@H]1O[C@@H](n2ccc(NO)nc2=O)[C@H](O)[C@@H]1O [Molnupiravir]		4.2 µM	4 µM	2.8 µM
